Measurements from the C3SDB collision cross section collection.

Conditions: instrument: DT, single field, calibrated with Agilent tune mix (Agilent)

Row | SMILES | collision cross section (N2) ([M+H]+) [Å²] | collision cross section (N2) ([M-H]-) [Å²] | other results
1 | CCCCCCCCCCCCCCCCCC(=O)SCCNC(=O)CCNC(=O)[C@H](O)C(C)(C)COP(=O)(O)OP(=O)(O)OC[C@H]1O[C@@H](n2cnc3c(N)ncnc32)[C@H](O)[C@@H]1OP(=O)(O)O [Stearoyl-CoA] | 302.9 | 301.81 | 
2 | CC(C)CCCC(C)CCCC(C)CCCC(C)C(=O)O (stereo unspecified) [Pristanic acid] |  | 178.79 | collision cross section (N2) ([M+Na]+): 206.3 Å²
3 | N#CC(O)c1ccccc1 (stereo unspecified) [Mandelonitrile] | 128.9 |  | 
4 | Nc1ncnc2c1ncn2[C@@H]1O[C@H](COP(=O)(O)OP(=O)(O)O)[C@@H](O)[C@H]1O [Adenosine 5'-diphosphate] | 186.1 |  | 
5 | Cc1ncc(COP(=O)(O)O)c(C=O)c1O [Pyridoxal 5'-phosphate] | 151.4 | 146.34 | 
6 | O=c1cc(-c2ccccc2)oc2ccccc12 [Flavone] | 146.7 |  | 
7 | Cc1cn([C@@H]2O[C@H](CO)[C@@H](O)[C@H]2O)c(=O)[nH]c1=O [Ribothymidine] |  | 153.52 | collision cross section (N2) ([M+Na]+): 165.6 Å²
8 | CCCCCCCCCCCCCCCCCCCCCC(=O)O [Behenic acid] |  | 191.18 | 
9 | NC(=O)CC[C@H](N)C(=O)O [L-Glutamine] |  |  | collision cross section (N2) ([M+Na]+): 133.7 Å²
10 | O=C(O)[C@H]1C[C@@H](O)CN1 [cis-4-Hydroxy-D-proline] | 128.4 | 122.02 | 
11 | O=C(COP(=O)(O)O)[C@H](O)[C@H](O)COP(=O)(O)O [D-Ribulose 1,5-bisphosphate] |  |  | collision cross section (N2) ([M+Na-2H]-): 150.9 Å²; collision cross section (N2) ([M+Na]+): 163.3 Å²
12 | O=C(O)CCC1=C(CC(=O)O)c2cc3nc(cc4[nH]c(cc5[nH]c(cc1n2)c(CC(=O)O)c5CCC(=O)O)c(CC(=O)O)c4CCC(=O)O)C(CC(=O)O)=C3CCC(=O)O [Uroporphyrin I] | 285.1 | 267.79 | 
13 | C=C1CC[C@H](O)C/C1=C/C=C1\CCC[C@]2(C)[C@@H]([C@H](C)CCCC(C)(C)O)CC[C@@H]12 [25-hydroxyvitamin D3] |  | 200.06 | 
14 | CCCCCCCCCCCCCCC[C@@H](O)[C@@H](N)CO [Sphinganine] | 188 |  | 
15 | Cn1cc(CCN)c2ccccc21 [1-Methyltryptamine] |  |  | collision cross section (N2) ([M+Na]+): 139 Å²
16 | Nc1ccn([C@H]2C[C@H](O)[C@@H](COP(=O)(O)O)O2)c(=O)n1 [2'-Deoxycytidine 5'-monophosphate] |  |  | collision cross section (N2) ([M+Na]+): 164 Å²
17 | CCCC(=O)SCCNC(=O)CCNC(=O)[C@H](O)C(C)(C)COP(=O)(O)OP(=O)(O)OC[C@H]1O[C@@H](n2cnc3c(N)ncnc32)[C@H](O)[C@@H]1OP(=O)(O)O [Butyryl-coenzyme A] |  | 253.26 | 

Row | SMILES | collision cross section (N2) ([M+H]+) [Å²] | collision cross section (N2) ([M-H]-) [Å²] | other results
18 | O=C(O)[C@H](O)COP(=O)(O)O [3-Phospho-D-glycerate] |  |  | collision cross section (N2) ([M+Na]+): 139.4 Å²
19 | O=C(O)[C@H]1CCCN1 [D-Proline] | 125 | 122.49 | 
20 | O=c1ccn([C@@H]2O[C@H](COP(=O)(O)OP(=O)(O)OP(=O)(O)O)[C@@H](O)[C@H]2O)c(=O)[nH]1 [Uridine 5'-triphosphate] |  | 178.55 | 
21 | CC1=C(C/C=C(\C)CCC[C@H](C)CCC[C@H](C)CCCC(C)C)C(=O)c2ccccc2C1=O [Phylloquinone] | 217.3 | 211.81 | 
22 | Cn1c(=O)[nH]c(=O)c2[nH]c(=O)[nH]c21 [3-Methyluric acid] |  | 128.86 | 
23 | Cn1c(=O)[nH]c2ncn(C)c2c1=O [1,7-Dimethylxanthine] |  | 133.24 | 
24 | COc1cc(/C=C/CO)cc(OC)c1O [Sinapyl alcohol] |  | 146.84 | collision cross section (N2) ([M+H-H2O]+): 136.5 Å²
25 | NCCc1cnc[nH]1 [Histamine] | 120 |  | 
26 | O=C(O)c1ccc(=O)[nH]c1 [6-Hydroxynicotinic acid] | 129.5 | 118.52 | 
27 | CC1=C(C/C=C(\C)CCC[C@H](C)CCC[C@H](C)CCCC(C)C)C(=O)c2ccccc2C1=O [Vitamin K1] | 216.1 | 210.94 | 
28 | C[C@@H](N)C(=O)N[C@H](C)C(=O)O [D-Ala-D-Ala] |  |  | collision cross section (N2) ([M+Na]+): 142.8 Å²
29 | O=P(O)(O)O[C@]1(CO)O[C@H](CO)[C@@H](O)[C@@H]1O [Beta-D-Fructose 2-phosphate] |  | 141.51 | collision cross section (N2) ([M+Na]+): 154 Å²
30 | O=P(O)(O)OC[C@H]1O[C@@H](O)C[C@@H]1O [2-Deoxyribose 5-phosphate] |  | 132.47 | 
31 | C=Cc1c(C)c2cc3[nH]c(cc4nc(cc5nc(cc1[nH]2)C(C)=C5CCC(=O)O)C(CCC(=O)O)=C4C)c(C)c3C=C [Protoporphyrin IX] | 241.4 | 245.23 | 
32 | CCCCCCCCCCCCC/C=C/[C@@H](O)[C@@H](N)CO [Sphingosine] | 186 |  | 
33 | CC(C)(COP(=O)(O)OP(=O)(O)OC[C@H]1O[C@@H](n2cnc3c(N)ncnc32)[C@H](O)[C@@H]1OP(=O)(O)O)[C@@H](O)C(=O)NCCC(=O)NCCSC(=O)C[C@@](C)(O)CC(=O)O [HMG-CoA] |  | 259.35 | 

The next lines start with results.

Row | collision cross section (N2) ([M+H]+) [Å²] | collision cross section (N2) ([M-H]-) [Å²] | SMILES | other results
34 |  | 119.33 | O=C(O)c1ccc([O-])cc1 [4-Hydroxybenzoate] | collision cross section (N2) ([M+H-H2O]+): 119 Å²
35 | 125.3 |  | O=C(O)/C=C/c1ccccc1 [trans-cinnamate] | 
36 | 148.7 | 138.21 | N[C@@H](Cc1ccc(O)c(O)c1)C(=O)O [3,4-Dihydroxy-L-phenylalanine] | 
37 | 133.1 |  | CS(=O)CCC(N)C(=O)O (racemic) [DL-Methionine sulfoxide] | 
38 | 216.2 |  | N[C@@H](Cc1cc(I)c(Oc2cc(I)c(O)c(I)c2)c(I)c1)C(=O)O [L-Thyroxine] | collision cross section (N2) ([M+Na-2H]-): 194.19 Å²
39 |  | 124.17 | CC(=O)Nc1ccccc1 [N-Phenylacetamide] | 
40 | 209.7 |  | N[C@@H](Cc1cc(I)c(Oc2ccc(O)c(I)c2)c(I)c1)C(=O)O [Liothyronine] | collision cross section (N2) ([M+Na-2H]-): 185.23 Å²
41 |  | 131.77 | N[C@@H](CS)C(=O)NCC(=O)O [Cysteinylglycine] | 
42 |  | 121.84 | O=C(O)c1ccccc1 [Benzoic acid] | 
43 | 162.7 | 161.4 | CC(=O)Nc1ccn([C@@H]2O[C@H](CO)[C@@H](O)[C@H]2O)c(=O)n1 [N4-Acetylcytidine] | 
44 |  | 192.06 | Nc1nc(=O)c2c([nH]1)NCC1CN(c3ccc(C(=O)NC(CCC(=O)O)C(=O)O)cc3)CN21 (stereo unspecified) [5,10-methylene-THF] | 
45 | 137.4 |  | COc1ccc(CC(=O)O)cc1 [4-Methoxyphenylacetic acid] | 
46 | 140.5 | 132.51 | O=C(O)c1cc(=O)c2cccc(O)c2[nH]1 [Xanthurenic acid] | 
